According to the CheMixHub drug solubility set:

Experiment: xn = mol fraction of the nth substance listed, in the solute-free solvent

O=C(O)c1ccc(C(=O)O)o1 + O + COCCOCCOC
solubility (g/100 g solution)
Settings | x2 = 0.1 | x2 = 0.2 | x2 = 0.3 | x2 = 0.4 | x2 = 0.5 | x2 = 0.6 | x2 = 0.7 | x2 = 0.8 | x2 = 0.9
303.15 K | 1.37 | 2.07 | 2.83 | 4.05 | 5.13 | 6.23 | 6.17 | 5.55 | 3.4
308.15 K | 1.42 | 2.15 | 2.96 | 4.22 | 5.35 | 6.45 | 6.42 | 5.78 | 3.72
313.15 K | 1.47 | 2.23 | 3.09 | 4.4 | 5.58 | 6.69 | 6.69 | 6.02 | 4.05
318.15 K | 1.53 | 2.34 | 3.23 | 4.59 | 5.79 | 6.96 | 6.97 | 6.3 | 4.34
323.15 K | 1.59 | 2.46 | 3.37 | 4.79 | 6.03 | 7.25 | 7.28 | 6.59 | 4.64
328.15 K | 1.67 | 2.56 | 3.53 | 5 | 6.29 | 7.62 | 7.59 | 6.96 | 4.91
333.15 K | 1.74 | 2.68 | 3.71 | 5.23 | 6.58 | 8.03 | 7.93 | 7.36 | 5.21
338.15 K | 1.84 | 2.83 | 3.88 | 5.46 | 6.96 | 8.47 | 8.33 | 7.78 | 5.51
343.15 K | 1.92 | 2.94 | 4.01 | 5.62 | 7.24 | 8.75 | 8.61 | 8.14 | 5.75
348.15 K | 2 | 3.1 | 4.17 | 5.84 | 7.52 | 9.16 | 9.15 | 8.46 | 6.05
353.15 K | 2.07 | 3.25 | 4.3 | 6.03 | 7.75 | 9.47 | 9.63 | 8.76 | 6.31

O=C1CCc2ccc(OCCCCN3CCN(c4cccc(Cl)c4Cl)CC3)cc2N1 + CCC(C)=O + CCCO
solubility (g/100 g solution)
Settings | 278.15 K | 283.15 K | 288.15 K | 293.15 K | 298.15 K | 303.15 K | 308.15 K | 313.15 K | 318.15 K
x2 = 0.1 | 0.703 | 0.851 | 1.04 | 1.22 | 1.46 | 1.7 | 2.04 | 2.61 | 3.38
x2 = 0.2 | 1.03 | 1.2 | 1.44 | 1.69 | 1.98 | 2.38 | 2.87 | 3.56 | 4.45
x2 = 0.3 | 1.32 | 1.52 | 1.88 | 2.29 | 2.68 | 3.15 | 3.67 | 4.46 | 5.5
x2 = 0.4 | 1.6 | 1.86 | 2.24 | 2.74 | 3.21 | 3.77 | 4.34 | 5.18 | 6.36
x2 = 0.5 | 1.86 | 2.05 | 2.48 | 3.03 | 3.59 | 4.13 | 4.81 | 5.82 | 7.2
x2 = 0.6 | 2.04 | 2.25 | 2.67 | 3.18 | 3.75 | 4.3 | 5.16 | 6.36 | 7.89
x2 = 0.7 | 1.98 | 2.21 | 2.62 | 3.12 | 3.68 | 4.22 | 5.04 | 6.23 | 7.71
x2 = 0.8 | 1.84 | 2.09 | 2.47 | 2.96 | 3.48 | 4.03 | 4.72 | 5.83 | 7.15
x2 = 0.9 | 1.68 | 1.94 | 2.27 | 2.69 | 3.12 | 3.61 | 4.21 | 5.13 | 6.36

CC(=O)OC(c1ccccc1)C(Cl)(Cl)Cl (stereo unspecified) + CC(C)O + O
solubility (g/100 g solution)
Settings | 288.15 K | 293.15 K | 298.15 K | 303.15 K | 308.15 K | 313.15 K | 318.15 K | 323.15 K | 328.15 K
x2 = 0.3 | 0.121 | 0.305 | 0.695 | 1.28 | 1.93 | 2.84 | 3.53 | 4.2 | 4.91
x2 = 0.4 | 0.68 | 1.07 | 1.66 | 2.53 | 3.38 | 4.59 | 5.99 | 7.89 | 10.2
x2 = 0.5 | 1.44 | 1.92 | 2.68 | 3.57 | 4.9 | 6.25 | 8.62 | 11.3 | 15.3
x2 = 0.6 | 2.16 | 2.57 | 3.54 | 4.68 | 6.23 | 7.88 | 10.9 | 14.7 | 19.1
x2 = 0.7 | 2.5 | 3.03 | 4.15 | 5.52 | 7.14 | 9.44 | 12.2 | 16.8 | 21.4
x2 = 0.8 | 2.69 | 3.35 | 4.57 | 6.3 | 7.95 | 10.4 | 13.8 | 18.5 | 23.5
x2 = 0.9 | 2.86 | 3.67 | 5.1 | 6.71 | 8.39 | 10.9 | 14.4 | 19.4 | 25.3

Nc1cncc(Cl)n1 + CN(C)C=O + O
solubility (g/100 g solution)
Settings | 278.15 K | 283.15 K | 288.15 K | 293.15 K | 298.15 K | 303.15 K | 308.15 K | 313.15 K | 318.15 K | 323.15 K
x2 = 0.02666 | – | – | – | – | – | – | – | – | – | 0.136
x2 = 0.05806 | – | – | – | – | – | – | – | – | – | 0.386
x2 = 0.09556 | 0.711 | 0.836 | 0.963 | 1.12 | 1.29 | 1.5 | 1.71 | 1.95 | 2.21 | 2.52
x2 = 0.1412 | 1 | 1.18 | 1.36 | 1.59 | 1.83 | 2.13 | 2.43 | 2.78 | 3.15 | 3.58
x2 = 0.1978 | 1.13 | 1.35 | 1.6 | 1.86 | 2.18 | 2.55 | 2.94 | 3.38 | 3.84 | 4.38
x2 = 0.27 | 1.26 | 1.53 | 1.81 | 2.13 | 2.52 | 2.94 | 3.38 | 3.91 | 4.51 | 5.2
x2 = 0.3652 | 1.39 | 1.68 | 2.03 | 2.4 | 2.83 | 3.31 | 3.89 | 4.51 | 5.18 | 5.97
x2 = 0.4965 | 1.5 | 1.85 | 2.23 | 2.67 | 3.17 | 3.69 | 4.34 | 5.06 | 5.84 | 6.7
x2 = 0.6893 | 1.59 | 1.97 | 2.39 | 2.87 | 3.39 | 3.97 | 4.66 | 5.5 | 6.38 | 7.36

COC1=CC(=O)CC(C)C12Oc1c(Cl)c(OC)cc(OC)c1C2=O (stereo unspecified) + CC(=O)CC(C)C + CC(C)O
solubility (g/100 g solution)
Settings | 283.15 K | 288.15 K | 293.15 K | 298.15 K | 303.15 K | 308.15 K | 313.15 K | 318.15 K | 323.15 K
x2 = 0.1 | 0.154 | 0.185 | 0.226 | 0.307 | 0.335 | 0.47 | 0.53 | 0.62 | 0.76
x2 = 0.2 | 0.251 | 0.304 | 0.345 | 0.441 | 0.514 | 0.683 | 0.713 | 0.852 | 1.01
x2 = 0.3 | 0.353 | 0.405 | 0.473 | 0.568 | 0.67 | 0.869 | 0.938 | 1.11 | 1.3
x2 = 0.4 | 0.433 | 0.519 | 0.591 | 0.73 | 0.812 | 1.04 | 1.09 | 1.27 | 1.46
x2 = 0.5 | 0.533 | 0.589 | 0.688 | 0.841 | 0.939 | 1.19 | 1.23 | 1.42 | 1.62
x2 = 0.6 | 0.595 | 0.655 | 0.751 | 0.902 | 1.03 | 1.27 | 1.33 | 1.5 | 1.72
x2 = 0.7 | 0.642 | 0.758 | 0.833 | 0.943 | 1.08 | 1.31 | 1.37 | 1.58 | 1.77
x2 = 0.8 | 0.675 | 0.753 | 0.823 | 0.973 | 1.1 | 1.33 | 1.39 | 1.59 | 1.79
x2 = 0.9 | 0.675 | 0.727 | 0.817 | 0.955 | 1.1 | 1.29 | 1.35 | 1.51 | 1.68
